{
  "source": "paper PMC3064895",
  "about": "(Cancer Chemotherapy and Pharmacology, 2010)",
  "key": {"[1]": {"test": "Plasma pharmacokinetics at steady state of sorafenib", "format": "in vivo, patients with advanced cancer", "conditions": "for AUC, geometric mean (% CV): AUC(0–12), n = 14; for AUC, geometric mean (% CV) / AUCnorm, geometric mean (% CV) / C max, geometric mean (% CV) / C max,norm, geometric mean (% CV) / C trough, geometric mean (% CV) / C trough,norm, geometric mean (% CV) / t max, median (range): plasma, sorafenib 400 mg bid; for AUC ratio (90% CI) / C max ratio (90% CI) / C trough ratio (90% CI): ratio of day 1 of cycle 5 versus day 1 of cycle 2"}, "[2]": {"test": "QT/QTc interval on 12-lead Holter ECG", "format": "in vivo, patients with advanced cancer", "conditions": "2 h post-dose; oral 400-mg single dose, positive control, 1 day before cycle 1"}, "[3]": {"conditions": "cited from earlier work"}, "[4]": {"conditions": "cited from earlier work; for Patients with declines to <50 LVEF(%): Hutson et al.; for Mean change in LVEF(%): study by Chu et al."}},
  "note": "Like-named read-outs stand apart in the source and are kept apart here.",
  "data": [
    {"compound": "NC(=O)c1cc(Oc2ccc(NC(=O)Nc3ccc(Cl)c(C(F)(F)F)c3)cc2)ccn1", "note": "[BAY 43-9007]", "values": [
      {"measurement": "AUC, geometric mean (% CV)", "setting": "[1]; Day 1 of cycle 2", "value": "2.0 (59.1) mg h/L"},
      {"measurement": "AUC, geometric mean (% CV)", "setting": "[1]; Day 1 of cycle 5", "value": "1.1 (74.0) mg h/L"},
      {"measurement": "AUCnorm, geometric mean (% CV)", "setting": "[1]; Day 1 of cycle 2", "value": "0.4 (62.8) kg h/L"},
      {"measurement": "C max, geometric mean (% CV)", "setting": "[1]; Day 1 of cycle 2", "value": "0.2 (73.4) mg/L"},
      {"measurement": "C max,norm, geometric mean (% CV)", "setting": "[1]; Day 1 of cycle 2", "value": "0.1 (75.2) kg/L"},
      {"measurement": "C trough, geometric mean (% CV)", "setting": "[1]; Day 1 of cycle 2", "value": "0.2 (82.3) mg/L"},
      {"measurement": "C trough,norm, geometric mean (% CV)", "setting": "[1]; Day 1 of cycle 2", "value": "<0.1 (85.0) kg/L"},
      {"measurement": "t max, median (range)", "setting": "[1]; Day 1 of cycle 2", "value": "1.00 (0–12.00) h"},
      {"measurement": "AUCnorm, geometric mean (% CV)", "setting": "[1]; Day 1 of cycle 5", "value": "0.2 (80.9) kg h/L"},
      {"measurement": "C max, geometric mean (% CV)", "setting": "[1]; Day 1 of cycle 5", "value": "0.1 (75.5) mg/L"},
      {"measurement": "C max,norm, geometric mean (% CV)", "setting": "[1]; Day 1 of cycle 5", "value": "<0.1 (78.2) kg/L"},
      {"measurement": "C trough, geometric mean (% CV)", "setting": "[1]; Day 1 of cycle 5", "value": "0.1 (82.4) mg/L"},
      {"measurement": "C trough,norm, geometric mean (% CV)", "setting": "[1]; Day 1 of cycle 5", "value": "<0.1 (84.8) kg/L"},
      {"measurement": "t max, median (range)", "setting": "[1]; Day 1 of cycle 5", "value": "2.00 (0–12.00) h"},
      {"measurement": "AUC ratio (90% CI)", "setting": "[1]", "value": "0.57 (0.41–0.81)"},
      {"measurement": "C max ratio (90% CI)", "setting": "[1]", "value": "0.51 (0.38–0.68)"},
      {"measurement": "C trough ratio (90% CI)", "setting": "[1]", "value": "0.52 (0.38–0.70)"}
    ]},
    {"compound": "CNC(=O)c1cc(Oc2ccc(NC(=O)Nc3ccc(Cl)c(C(F)(F)F)c3)cc2)cc[n+]1[O-]", "note": "[BAY 67-3472]", "values": [
      {"measurement": "AUC, geometric mean (% CV)", "setting": "[1]; Day 1 of cycle 2", "value": "8.5 (58.3) mg h/L"},
      {"measurement": "AUC, geometric mean (% CV)", "setting": "[1]; Day 1 of cycle 5", "value": "5.2 (98.7) mg h/L"},
      {"measurement": "AUCnorm, geometric mean (% CV)", "setting": "[1]; Day 1 of cycle 2", "value": "1.4 (59.6) kg h/L"},
      {"measurement": "C max, geometric mean (% CV)", "setting": "[1]; Day 1 of cycle 2", "value": "1.0 (66.8) mg/L"},
      {"measurement": "C max,norm, geometric mean (% CV)", "setting": "[1]; Day 1 of cycle 2", "value": "0.2 (70.2) kg/L"},
      {"measurement": "C trough, geometric mean (% CV)", "setting": "[1]; Day 1 of cycle 2", "value": "0.8 (81.1) mg/L"},
      {"measurement": "C trough,norm, geometric mean (% CV)", "setting": "[1]; Day 1 of cycle 2", "value": "0.1 (85.9) kg/L"},
      {"measurement": "t max, median (range)", "setting": "[1]; Day 1 of cycle 2", "value": "1.00 (0–12.00) h"},
      {"measurement": "AUCnorm, geometric mean (% CV)", "setting": "[1]; Day 1 of cycle 5", "value": "0.9 (103.2) kg h/L"},
      {"measurement": "C max, geometric mean (% CV)", "setting": "[1]; Day 1 of cycle 5", "value": "0.6 (96.9) mg/L"},
      {"measurement": "C max,norm, geometric mean (% CV)", "setting": "[1]; Day 1 of cycle 5", "value": "0.1 (100.7) kg/L"},
      {"measurement": "C trough, geometric mean (% CV)", "setting": "[1]; Day 1 of cycle 5", "value": "0.5 (109.4) mg/L"},
      {"measurement": "C trough,norm, geometric mean (% CV)", "setting": "[1]; Day 1 of cycle 5", "value": "0.1 (111.5) kg/L"},
      {"measurement": "t max, median (range)", "setting": "[1]; Day 1 of cycle 5", "value": "2.00 (0–8.12) h"},
      {"measurement": "AUC ratio (90% CI)", "setting": "[1]", "value": "0.61 (0.41–0.92)"},
      {"measurement": "C max ratio (90% CI)", "setting": "[1]", "value": "0.58 (0.41–0.82)"},
      {"measurement": "C trough ratio (90% CI)", "setting": "[1]", "value": "0.54 (0.36–0.81)"}
    ]},
    {"compound": "NC(=O)c1cc(Oc2ccc(NC(=O)Nc3ccc(Cl)c(C(F)(F)F)c3)cc2)cc[n+]1[O-]", "note": "[BAY 68-7769]", "values": [
      {"measurement": "AUC, geometric mean (% CV)", "setting": "[1]; Day 1 of cycle 2", "value": "2.8 (92.3) mg h/L"},
      {"measurement": "AUC, geometric mean (% CV)", "setting": "[1]; Day 1 of cycle 5", "value": "1.4 (129.3) mg h/L"},
      {"measurement": "AUCnorm, geometric mean (% CV)", "setting": "[1]; Day 1 of cycle 2", "value": "0.5 (91.4) kg h/L"},
      {"measurement": "C max, geometric mean (% CV)", "setting": "[1]; Day 1 of cycle 2", "value": "0.3 (101.6) mg/L"},
      {"measurement": "C max,norm, geometric mean (% CV)", "setting": "[1]; Day 1 of cycle 2", "value": "0.1 (99.6) kg/L"},
      {"measurement": "C trough, geometric mean (% CV)", "setting": "[1]; Day 1 of cycle 2", "value": "0.3 (114.5) mg/L"},
      {"measurement": "C trough,norm, geometric mean (% CV)", "setting": "[1]; Day 1 of cycle 2", "value": "0.1 (113.5) kg/L"},
      {"measurement": "t max, median (range)", "setting": "[1]; Day 1 of cycle 2", "value": "2.00 (0–12.00) h"},
      {"measurement": "AUCnorm, geometric mean (% CV)", "setting": "[1]; Day 1 of cycle 5", "value": "0.3 (128.1) kg h/L"},
      {"measurement": "C max, geometric mean (% CV)", "setting": "[1]; Day 1 of cycle 5", "value": "0.2 (127.2) mg/L"},
      {"measurement": "C max,norm, geometric mean (% CV)", "setting": "[1]; Day 1 of cycle 5", "value": "<0.1 (123.6) kg/L"},
      {"measurement": "C trough, geometric mean (% CV)", "setting": "[1]; Day 1 of cycle 5", "value": "0.1 (127.8) mg/L"},
      {"measurement": "C trough,norm, geometric mean (% CV)", "setting": "[1]; Day 1 of cycle 5", "value": "<0.1 (124.7) kg/L"},
      {"measurement": "t max, median (range)", "setting": "[1]; Day 1 of cycle 5", "value": "2.00 (0–8.05) h"},
      {"measurement": "AUC ratio (90% CI)", "setting": "[1]", "value": "0.50 (0.28–0.89)"},
      {"measurement": "C max ratio (90% CI)", "setting": "[1]", "value": "0.47 (0.28–0.80)"},
      {"measurement": "C trough ratio (90% CI)", "setting": "[1]", "value": "0.49 (0.29–0.83)"}
    ]},
    {"compound": "COc1c(N2C[C@@H]3CCCN[C@@H]3C2)c(F)cc2c(=O)c(C(=O)O)cn(C3CC3)c12", "note": "[Moxifloxacin]", "values": [
      {"measurement": "Mean (SD) change from baseline in QT", "setting": "[2]", "value": "5.7 (24.3) ms"},
      {"measurement": "Mean (SD) change from baseline in QTcB", "setting": "[2]", "value": "4.4 (12.9) ms"},
      {"measurement": "Mean (SD) change from baseline in QTcF", "setting": "[2]", "value": "4.9 (13.7) ms"},
      {"measurement": "Increase in QT/QTc interval", "setting": "[3]", "value": "5 to 10", "unit": "ms"}
    ]},
    {"compound": "CCN(CC)CCNC(=O)c1c(C)[nH]c(/C=C2\\C(=O)Nc3ccc(F)cc32)c1C", "note": "[sunitinib]", "values": [
      {"measurement": "Patients with declines to <50 LVEF(%)", "setting": "[4]; after 1 cycle (6 weeks)", "value": 12, "unit": "%"},
      {"measurement": "Patients with declines to <50 LVEF(%)", "setting": "[4]; after 1 year", "value": 10, "unit": "%"},
      {"measurement": "Mean change in LVEF(%)", "setting": "[4]; after 2 cycles", "value": "−2.2 LVEF(%)"},
      {"measurement": "Patients with declines to <50 LVEF(%)", "setting": "[4]; after 2 years", "value": 5, "unit": "%"},
      {"measurement": "Mean change in LVEF(%)", "setting": "[4]; after 4 cycles", "value": "−5.1 LVEF(%)"},
      {"measurement": "Incidence of ≥10 LVEF(%) reduction", "setting": "[4]; observational study by Schmidinger et al.", "value": 14, "unit": "%"}
    ]}
  ]
}
